According to patent publication US20240189315A1, “Cyclic Pyridine Derivatives as cGAS Inhibitors” (Boehringer Ingelheim International GmbH, priority 2022, published 2024):
Like-named read-outs stand apart in the source and are kept apart here.

Experiments:
[1] = biological target: Human cGAS enzyme (Homo sapiens (Human), UniProt Q8N884); assay: Human cGAS enzyme assay (hcGAS IC50, in vitro), cGAMP formation by RapidFire MS; assay type: biochemical;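 also: recombinant human cGAS activated by 45 bp dsDNA with 30 µM each ATP and GTP, 90 min, cGAMP vs cyclic-di-GMP standard by MS, 8-point titration from 10 µM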
[2] = biological target: cellular cGAS activity in dsDNA-stimulated human whole blood (Homo sapiens (Human), UniProt Q8N884); assay: Human whole blood assay (hWB IC50): IFNα2a production after dsDNA transfection; assay type: cell-based;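 also: IFNα-2a in plasma measured by MSD electrochemiluminescence immunoassay after 22 h at 37 °C, 8-point dilution series from 10 µM top concentration, DMSO wells as controls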
Protocol: 6.3 Method: Human Whole Blood Assay (Human WB IC50) For the detection of cellular cGAS activity human whole blood was stimulated by transfection with double stranded DNA. Pathway activity was monitored by measuring the IFNα2α production.
Compounds were delivered as 10 mM DMSO solution and serially diluted and transferred to the 96-well cell culture plate (Corning #3595), prefilled with 20 μl OptiMEM (Gibco, #11058-021) in each well, using an Echo acoustic dispenser. Typically, 8 concentrations were used with the highest concentration at 10 μM in the final assay volume followed by ˜1:5 dilution steps. DMSO concentration was set to 0.1% in the final assay volume. The 96-well assay plate contained 10 test compounds, and DMSO in control wells.
Collection of human whole blood from 3 or more healthy donors (male or female, no medication for 7 days except contraceptive and thyroxine) as Na-Citrate blood (e.g. 3.8% in Monovettes from Sarstedt) was conducted in parallel. Whole blood was kept at room temperature for a maximum of 3 hours after collection until use in the assay.
160 μl of the whole blood samples was transferred to each well of the 96-well assay plates filled with compound/OptiMEM. All assay plates were prepared as duplicates with blood from different donors. Blood plates were kept at room temperature for 60 minutes and continuous shaking with 450 rpm, covered with the lid, but not sealed.
20 μl OptiMEM and 9.6:1 Fugene was added to all low control wells.
After covering assay plates with area seals and the lid, blood plates were kept at room temperature for 30 minutes and continuous shaking with 450 rpm, followed by an overnight incubation of 22 h at 37° C. in the incubator, without shaking.
For the detection of IFNα-2a in human plasma, the biotinylated capture antibody (Antibody set IFNA2, Meso Scale Diagnostics #B21VH-3, including coating and capture antibody) was diluted 1:17.5 in Diluent 100 (Meso Scale Diagnostics #R50AA-4), according to the manufacturer's directions. U-Plex MSD GOLD 96-well Small Spot Strepavidin SECTOR Plates (Meso Scale Diagnostics #L45SA-5) were coated with 25 μl diluted capture antibody. Coated plates were incubated for 60 min at room temperature under continuous shaking at 700 rpm. MSD IFNα-2a plates were washed three times with 150 μl wash buffer (1×HBSS, 0.05% Tween).
After blocking the plates with 100 μl block solution/well (1×HBSS with 0.2% Tween, 2% BSA) for 60 min at room temperature and continuous shaking at 700 rpm, plates were emptied as dry as possible by dumping just before continuing with the human plasma.
Whole Blood assay plates were centrifuged at 1600 rpm for 10 minutes. 25 μl of supernatant was transferred with a pipetting robot from each whole blood plate to the corresponding IFNα-2a plate.
Plates were sealed with microplate seals and kept at room temperature again under continuous shaking at 700 rpm for two hours.
Next MSD IFNα-2a plates were washed three times with 150 μl wash buffer (1×HBSS, 0.05% Tween), before adding 25 μl MSD SULFO-TAG IFNα-2a Antibody solution (1:100 diluted in Diluent 3 (Meso Scale Diagnostics #R50AP-2) to each well of the plates.
Afterwards plates were sealed with microplate seals and kept at room temperature again under continuous shaking at 700 rpm for two hours. Finally, MSD IFNα-2a plates were washed three times with 150 μl wash buffer (1×HBSS, 0.05% Tween). 150 μl 2× Read buffer was added to each well and plates were immediately measured with the MSD Sector S600 Reader using the vendor barcode.
For data evaluation and calculation,% control calculation of each well was based on the mean of high (DNA stimulated control) and mean of low (unstimulated control) controls by using the following formula:
The IC50-values were calculated using the standard 4 parameter logistic regression formula.

[3] = system: pathway directly downstream of cGAS in cGAMP-stimulated THP1-Dual cells; assay: cGAMP stimulated counter cell assay (THP1(cGAMP) IC50): IFN induction in cGAMP-stimulated THP1-Dual cells; assay type: cell-based, human; conditions: for IC50: Homo sapiens, THP1-Dual; for Ratio THP(cGAMP) IC50/ THP(vir) IC50: selectivity for cGAS inhibition
Text: 6.2 Method: Human cGAS Cell Assay and cGAMP Stimulated Counter Cell Assay (THP1(vir) IC50 and THP1(cGAMP) IC50)
THP1-Dual™ cells (InvivoGen #thpd-nfis) expressing IRF dependent Lucia luciferase reporter were used as basis for both assays. For the detection of cellular cGAS activity cells were stimulated by a baculovirus (pFastbac-1, Invitrogen, no coding insert) infection that delivers the cGAS enzyme stimulating double-stranded DNA (measurement of THP1(vir) IC50).
For the counter assay, cells were stimulated by cGAMP (SigmaAldrich #SML1232) to activate the identical pathway independent and directly downstream of cGAS (measurement of THP1(cGAMP) IC50). Pathway activity was monitored by measuring the Lucia luciferase activity induced by either DNA stimulated cGAS enzyme activity (measurement of THP1(vir) IC50) or by cGAMP directly (measurement of THP1(cGAMP) IC50, counter assay).
Compounds were delivered in 10 mM DMSO solution, serially diluted and transferred to the 384 well assay plate (Greiner #781201) using an Echo acoustic dispenser. Typically, 8 concentrations were used with the highest concentration at 10 μM in the final assay volume followed by ˜1:5 dilution steps. DMSO concentration was set to 1% in the final assay volume. The 384 well assay plate contained 21 test compounds (column 1-22), and DMSO in column 23 and 24.
Cells, cultivated according to manufacturer conditions, were harvested by centrifugation at 300 g/10 min and were then resuspended and diluted to 1.66E5 cells/ml in fresh cell culture medium (RPMI 1640 (Gibco #A10491-01), 10% FCS (Gibco #10500), 1× GlutaMax (Gibco #35050-061), 1× Pen/Strep solution (Gibco #15140-122), 100 μg/ml Normocin (InvivoGen #ant-nr), 100 μg/ml Zeocin (InvivoGen #ant-zn), 10 μg/ml Blasticidin S (Life Technologies #A11139-03)). The baculovirus solution was then added 1:200 (have varied according to virus batch) to the cells (measurement of THP1(vir) IC50). […] 30 μL of the cell/virus-mix were added to each well of the compound plate from column 1-23 via MultiDrop Combi dispenser (5000 cells/well). In column 24, 30 μl/5000 cells/well without virus were added as a low control.
The plates were then incubated for 18 h at 37° C. in a humidified incubator.
Following that, 15 μL of QuantiLuc detection reagent (InvivoGen #rep-qlcg5) were added to each well using a MultiDrop Combi. Measurement was done immediately after the addition using an EnVision reader (US-luminescence read-mode).
Data Evaluation and Calculation:
For data evaluation and calculation, the measurement of the low control was set as 0% control and the measurement of the high control was set as 100% control. The IC50 values were calculated using the standard 4 parameter logistic regression formula. Calculation: [y=(a−d)/(1+(x/c)^b)+d], a=low value, d=high value; x=conc M; c=IC50 M; b=slope

[4] = biological target: cellular cGAS activity in baculovirus-stimulated THP1-Dual cells (Homo sapiens (Human), UniProt Q8N884); assay: Human cGAS cell assay (THP1(vir) IC50): IFN induction in virus-stimulated THP1-Dual cells, IRF Lucia luciferase reporter; assay type: cell-based;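 also: Eight-point dilution series starting at 10 µM, 1% DMSO, 18 h at 37 °C, luminescence read-out, virus-free wells as 0% and DMSO-treated virus-stimulated wells as 100%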
[5] = Table 1, dsDNA-stimulated human whole blood
[6] = Table 1, cGAMP-stimulated THP1 cells, read-out: THP(cGAMP) IC50
[7] = Table 1, virus-stimulated THP1 cells, read-out: THP(vir) IC50

Human cGAS enzyme, sequence (Q8N884 whole entry): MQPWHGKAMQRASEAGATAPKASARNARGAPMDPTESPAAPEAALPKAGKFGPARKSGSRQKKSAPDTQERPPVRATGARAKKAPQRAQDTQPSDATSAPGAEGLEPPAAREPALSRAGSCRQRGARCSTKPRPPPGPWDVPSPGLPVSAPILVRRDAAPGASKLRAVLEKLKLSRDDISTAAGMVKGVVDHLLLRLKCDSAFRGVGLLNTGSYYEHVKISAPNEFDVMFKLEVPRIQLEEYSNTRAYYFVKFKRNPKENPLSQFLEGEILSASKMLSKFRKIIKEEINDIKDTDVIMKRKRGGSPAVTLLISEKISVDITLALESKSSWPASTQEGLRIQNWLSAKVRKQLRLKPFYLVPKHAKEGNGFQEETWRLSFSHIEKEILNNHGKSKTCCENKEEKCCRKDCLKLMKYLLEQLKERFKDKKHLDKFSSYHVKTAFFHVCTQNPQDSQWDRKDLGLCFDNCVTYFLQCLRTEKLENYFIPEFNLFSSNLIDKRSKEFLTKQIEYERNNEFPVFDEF
cellular cGAS activity in dsDNA-stimulated human whole blood, sequence (Q8N884 whole entry): as above
cellular cGAS activity in baculovirus-stimulated THP1-Dual cells, sequence (Q8N884 whole entry): as above

SMILES | IC50 ([1]; Table 1) [nM] | IC50 [2, 5] [nM] | IC50 [3, 6] [nM] | Ratio THP(cGAMP) IC50/ THP(vir) IC50 ([3]; Table 1) | IC50 [4, 7] [nM] | IC50 ([1]; Table 2, compounds from WO 2020/142729 re-tested in the applicant's assay) [nM] | IC50 ([2]; Table 2, compounds from WO 2020/142729) [nM] | IC50 ([3]; Table 2, compounds from WO 2020/142729, read-out: THP1(cGAMP) IC50) [nM] | IC50 ([4]; Table 2, compounds from WO 2020/142729, read-out: THP1(vir) IC50) [nM]
C[C@H]1CN2CC[C@]1(F)c1cc(Cl)cnc1O[C@H]1C[C@@H](C(=O)O)N(C1)c1nc(nc3c1oc1ccccc13)CCCCCOC2=O [Example 22, (1R,9S,11S,34S)-4-chloro-1-fluoro-34-methyl-31-oxo-8,15,30-trioxa-6,12,23,32,37-pentaaabestacyclo[30.2.2.1^9,12.1^13,24.0^2,7.0^14,22.0^16,21]octatriaconta-2,4,6,13(37),14(22),16(21),17,19,23-nonaene-11-carboxylic acid] | 45 | 1560 | > 10000 | 20 | 490 | – | – | – | –
C[C@H]1CN2CC[C@]1(F)c1cc(Cl)cnc1O[C@H]1C[C@@H](C(=O)O)N(C1)c1nc(nc3c1oc1ccccc13)CCCOCCC2=O [Example 23, (1R,9S,11S,34S)-4-Chloro-1-fluoro-34-methyl-31-oxo-8,15,28-trioxa-6,12,23,32,37-pentaazabestacyclo[30.2.2.1^9,12.1^13,24.0^2,7.0^14,22.0^16,21]octatriaconta-2,4,6,13(37),14(22),16(21),17,19,23-nonaene-11-carboxylic acid] | 12 | 114 | 10000 | 148 | 69 | – | – | – | –
C[C@H]1CN2CC[C@]1(F)c1cccnc1O[C@H]1C[C@@H](C(=O)O)N(C1)c1nc(nc3c1oc1ccccc13)CCCOCCC2=O [Example 24, (1R,9S,11S,34S)-1-fluoro-34-methyl-31-oxo-8,15,28-trioxa-6,12,23,32,37-pentaazaheptacyclo-[30.2.2.1^9,12.1^13,24.0^2,7.0^14,22.0^16,21]octatriaconta-2,4,6,13(37),14(22),16(21),17,19,23-nonaene-11-carboxylic acid] | 28 | 801 | > 10000 | 16 | 640 | – | – | – | –
C[C@H]1COCCCc2nc(c3oc4ccccc4c3n2)N2C[C@H](C[C@H]2C(=O)O)Oc2ncc(Br)cc2[C@@]2(F)CCN(C[C@@H]2C)C1=O [Example 25] | 7 | 116 | 1700 | 16 | 110 | – | – | – | –
C[C@@H]1COCCCc2nc(c3oc4ccccc4c3n2)N2C[C@H](C[C@H]2C(=O)O)Oc2ncc(Br)cc2[C@@]2(F)CCN(C[C@@H]2C)C1=O [Example 26] | 18 | 276 | 3200 | 70 | 46 | – | – | – | –
C[C@H]1CN2CC[C@]1(F)c1cc(Cl)cnc1O[C@H]1C[C@@H](C(=O)O)N(C1)c1nc(nc3c1oc1ccccc13)CCCCOCC2=O [Example 27] | 5 | 33 | 1700 | 20 | 83 | – | – | – | –
C[C@H]1CN2CC[C@]1(F)c1cc(Br)cnc1O[C@H]1C[C@@H](C(=O)O)N(C1)c1nc(nc3c1oc1ccccc13)CCCCOCC2=O [Example 28] | 7 | 15 | 1900 | 39 | 47 | – | – | – | –
Cc1nc(N2C[C@@H](CC(=O)Nc3ccncc3)C[C@H]2C(=O)O)c2oc3ccccc3c2n1 [Example 28] | – | – | – | – | – | 630 | > 9990 | > 17000 | > 32000
CC#Cc1cnc2c(c1)[C@@]1(F)CCN(C[C@@H]1C)C(=O)COCCCCc1nc(c3oc4ccccc4c3n1)N1C[C@H](C[C@H]1C(=O)O)O2 [Example 29, (1R,9S,11S,34S)-1-fluoro-34-methyl-31-oxo-4-(prop-1-yn-1-yl)-8,15,29-trioxa-6,12,23,32,37-penta-azaheptacyclo[30.2.2.1^9,12.1^13,24.0^2,7.0^14,22.0^16,21]octatriaconta-2(7),3,5,13,16(21),17,19,22,24(37)-nonaene-11-carboxylic acid] | 14 | 22 | 2200 | 39 | 57 | – | – | – | –
C[C@H]1CN2CC[C@]1(F)c1cc(Cl)cnc1O[C@H]1C[C@@H](C(=O)O)N(C1)c1nc(nc3c1oc1cc(F)ccc13)CCCCOCC2=O [Example 30] | 7 | 22 | 4700 | 67 | 70 | – | – | – | –
C[C@H]1CN2CC[C@]1(F)c1cc(Cl)cnc1O[C@H]1C[C@@H](C(=O)O)N(C1)c1nc(nc3c1oc1ccccc13)C(F)(F)CCCOCC2=O [Example 31] | 7 | 5 | 7200 | 3002 | 3 | – | – | – | –
C[C@H]1CN2CC[C@]1(F)c1cc(Cl)cnc1O[C@H]1C[C@@H](C(=O)O)N(C1)c1nc(nc3c1oc1cc(F)ccc13)C(F)(F)CCCOCC2=O [Example 32] | 5 | 9 | > 10000 | 1190 | 8 | – | – | – | –
C[C@H]1CN2CC[C@]1(F)c1cc(Cl)cnc1O[C@H]1C[C@@H](C(=O)O)N(C1)c1nc(nc3c1oc1cc(Cl)ccc13)C(F)(F)CCCOCC2=O [Example 33] | 5 | 16 | 6400 | 2085 | 3 | – | – | – | –
C[C@H]1CN2CC[C@]1(F)c1cc(Cl)cnc1O[C@H]1C[C@@H](C(=O)O)N(C1)c1nc(nc3c1oc1ccccc13)CCOCCOC2=O [Example 34, (1R,9S,11S,34S)-4-chloro-1-fluoro-34-methyl-31-oxo-8,15,27,30-tetraoxa-6,12,23,32,37-pentaaza-heptacyclo[30.2.2.1^9,12.1^13,24.0^2,7.0^14,22.0^16,21]octatriaconta-2,4,6,13(37),14(22),16(21),17,19,23-nonaene-11-carboxylic acid] | 8 | 41 | 16000 | 450 | 36 | – | – | – | –
C[C@H]1CN2CC[C@]1(F)c1cc(Cl)cnc1O[C@H]1C[C@@H](C(=O)O)N(C1)c1nc(nc3c1oc1ccccc13)CCCCCC2=O [Example 36] | 7 | 79 | > 10000 | 80 | 130 | – | – | – | –
C[C@H]1CN2CC[C@]1(F)c1cc(Cl)cnc1O[C@H]1C[C@@H](C(=O)O)N(C1)c1nc(nc3c1oc1ccccc13)CCCOCC2=O [Example 37, (1R,9S,11S,33S)-4-chloro-1-fluoro-33-methyl-30-oxo-8,15,28-trioxa-6,12,23,31,36-pentaaza-heptacyclo[29.2.2.1^9,12.1^13,24.0^2,7.0^14,22.0^16,21]heptatriaconta-2,4,6,13(36),14(22),16(21),17,19,23-nonaene-11-carboxylic acid] | 3 | 11 | 11000 | 884 | 12 | – | – | – | –
C[C@H]1CN2CC[C@]1(F)c1cc(Cl)cnc1O[C@H]1C[C@@H](C(=O)O)N(C1)c1nc(nc3c1oc1ccccc13)CCOCCC2=O [Example 38, (1R,9S,11S,33S)-4-chloro-1-fluoro-33-methyl-30-oxo-8,15,27-trioxa-6,12,23,31,36-pentaaza-heptacyclo[29.2.2.1^9,12.1^13,24.0^2,7.0^14,22.0^16,21]heptatriaconta-2,4,6,13(36),14(22),16(21),17,19,23-nonaene-11-carboxylic acid] | 3 | 8 | > 10000 | 2964 | 3 | – | – | – | –
